Test results: patent US20200017495A1, “NOVEL HETEROCYCLIC COMPOUNDS AND THEIR USE IN PREVENTING OR TREATING BACTERIAL INFECTIONS” (priority 2017, published 2020)

Test system: Klebsiella pneumoniae (KPN) isolates
Test: MIC of compounds alone and combined with antibacterials, broth microdilution (CLSI)
Type: cell-based
Procedure, shortened: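 First, log-phase suspensions are brought to 5.10^5 CFU/mL final in ca-MHB; plates then incubate 16-20 h at 35° C in air. Growth is judged visually, giving the compound MIC alone and the antibacterial MIC at each compound concentration.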

C=CC1=C(C(=O)O)N2C(=O)[C@@H](NC(=O)/C(=N\OCC(=O)O)c3csc(N)n3)[C@H]2SC1 [FIX, Cefixime]
MIC ATB in combination (KPN UFR216, AF2 @ 8 μg/mL): <0.25 µg/mL | MIC ATB in combination (KPN UFR216, AF3 @ 8 μg/mL): <0.25 µg/mL | MIC ATB in combination (KPN UFR216, CLA @ 4 μg/mL): <=0.25 μg/mL | MIC ATB in combination (KPN UFR217, AF2 @ 8 μg/mL): <0.25 µg/mL | MIC ATB in combination (KPN UFR217, AF3 @ 8 μg/mL): <0.25 µg/mL | MIC ATB in combination (KPN UFR217, CLA @ 4 μg/mL): <=0.25 μg/mL | MIC ATB in combination (KPN UFR218, AF2 @ 8 μg/mL): <0.25 µg/mL | MIC ATB in combination (KPN UFR218, AF3 @ 8 μg/mL): <0.25 µg/mL | MIC ATB in combination (KPN UFR218, CLA @ 4 μg/mL): 1 µg/mL | MIC ATB in combination (KPN UFR219, AF2 @ 8 μg/mL): 0.5 µg/mL | MIC ATB in combination (KPN UFR219, AF3 @ 8 μg/mL): <=0.25 μg/mL | MIC ATB in combination (KPN UFR219, CLA @ 4 μg/mL): 0.5 µg/mL | MIC ATB in combination (KPN UFR220, AF2 @ 8 μg/mL): <0.25 µg/mL | MIC ATB in combination (KPN UFR220, AF3 @ 8 μg/mL): <0.25 µg/mL | MIC ATB in combination (KPN UFR220, CLA @ 4 μg/mL): >128 µg/mL | MIC ATB in combination (KPN UFR221, AF2 @ 8 μg/mL): <0.25 µg/mL | MIC ATB in combination (KPN UFR221, AF3 @ 8 μg/mL): <0.25 µg/mL | MIC ATB in combination (KPN UFR221, CLA @ 4 μg/mL): 128 µg/mL | MIC ATB in combination (KPN UFR222, AF2 @ 8 μg/mL): <0.25 µg/mL | MIC ATB in combination (KPN UFR222, AF3 @ 8 μg/mL): <0.25 µg/mL | MIC ATB in combination (KPN UFR222, CLA @ 4 μg/mL): >128 µg/mL | MIC ATB in combination (KPN UFR227O, AF2 @ 8 μg/mL): 8 µg/mL | MIC ATB in combination (KPN UFR227O, AF3 @ 8 μg/mL): 16 µg/mL | MIC ATB in combination (KPN UFR227O, CLA @ 4 μg/mL): >128 µg/mL | MIC (strain KPN 6299, genotype TEM-1, SHV-11, OXA-163): 8 µg/mL | MIC (strain KPN 110376, compound alone): >128 µg/mL | MIC (strain KPN 110376, genotype TEM-1, SHV-1, CTX-M-15, OXA-1, OXA-48): >128 µg/mL | MIC (strain KPN 121206, genotype SHV-1, NDM-1): >128 µg/mL | MIC (strain KPN 131119, compound alone): >128 µg/mL | MIC (strain KPN 131119, genotype TEM-1, SHV-11, CTX-M-15, OXA-1, OXA-48): >128 µg/mL | MIC (strain KPN 140347, genotype CTX-M-15, NDM-1, antibiotic alone): >128 µg/mL | MIC ATB in combination (strain KPN 140347, with AF2 @ 8 μg/mL): >128 µg/mL | MIC ATB in combination (strain KPN 140347, with AF3 @ 8 μg/mL): >128 µg/mL | MIC ATB in combination (strain KPN 140347, with CLA @ 4 μg/mL): >128 µg/mL | MIC (strain KPN 140513, genotype TEM-1, SHV-11, CTX-M-15, KPC-3): >128 µg/mL | MIC (strain KPN 160143, genotype TEM-1, SHV-1, CTX-M-15, KPC-2, OXA-1): >128 µg/mL | MIC (strain KPN 190128, genotype TEM-1, SHV-32, CTX-M-15, OXA-1): >128 µg/mL | MIC (strain KPN 190270, compound alone): >128 µg/mL | MIC (strain KPN 190270, genotype TEM-1, SHV-76, CTX-M-15, OXA-1): >128 µg/mL | MIC (strain KPN 190425, genotype TEM-1, SHV-1, CTX-M-15, OXA-1): >128 µg/mL | MIC (strain KPN 190551, genotype TEM-1, SHV-1, CTX-M-15, OXA-1): >128 µg/mL | MIC (strain KPN 200047, genotype TEM-1, SHV-32, CTX-M-15, OXA-1): >128 µg/mL | MIC (strain KPN 200327, genotype TEM-1, SHV-1, CTX-M-15, OXA-1): 64 µg/mL | MIC (strain KPN 260251, genotype TEM-1, SHV-11, SHV-12, CTX-M-15, KPC-2): >128 µg/mL | MIC (strain KPN 260252, genotype TEM-1, SHV-11, KPC-3): >128 µg/mL | MIC (strain KPN 260376, genotype SHV-1, SHV-49, OXA-1): >128 µg/mL | MIC (strain KPN 270077, genotype TEM-1, SHV-1, CTX-M-15): >128 µg/mL | MIC (strain KPN 700603, genotype SHV-18, OXA-2): 16 µg/mL | MIC (strain KPN ARA, genotype TEM-1, SHV-11, CTX-M-15, OXA-1, OXA-48): >128 µg/mL | MIC (strain KPN BAA-1898, genotype TEM-1, SHV-11, SHV-12, KPC-2): >128 µg/mL | MIC (strain KPN LIB, genotype SHV-11, OXA-48): <=0.25 μg/mL | MIC (strain KPN UFR22_O, genotype TEM-1, SHV-1, OXA-48): <=0.25 μg/mL | MIC (strain KPN UFR23, genotype TEM-1, SHV-1, OXA-48): <=0.25 μg/mL | MIC (strain KPN UFR24, genotype TEM-1, SHV-2, SHV-11, OXA-1, OXA-48, OXA-47): >128 µg/mL | MIC (strain KPN UFR25, compound alone): >128 µg/mL | MIC (strain KPN UFR25, genotype TEM-1, SHV-11, CTX-M-15, OXA-162): >128 µg/mL | MIC (strain KPN UFR27, genotype TEM-1, SHV-28, CTX-M-15, OXA-204): >128 µg/mL | MIC (strain KPN UFR28, genotype TEM-1, SHV-1, CTX-M-15, OXA-1, OXA-232): 256 µg/mL | MIC (strain KPN UFR33, genotype TEM-2, SHV-12, CTX-M-15, OXA-1, OXA-10): >128 µg/mL | MIC (strain KPN UFR42, genotype SHV-2, CTX-M-15 OXA-1, OXA-181, NDM-1): >128 µg/mL | MIC (strain KPN UFR43, genotype SHV-11, CTX-M-15, CMY-2, OXA-1, NDM-1): >128 µg/mL | MIC (strain KPN UFR46, genotype TEM-1, SHV-12, CTX-M-15, OXA-9, VIM-1): >128 µg/mL | MIC (strain KPN UFR53, genotype TEM-1, IMP-1): >128 µg/mL | MIC (strain KPN UFR65, genotype TEM-1, SHV-11, KPC-2): >128 µg/mL | MIC (strain KPN UFR66, compound alone): 512 µg/mL
